Laboratory results as given in publication PMC7756582, “Prodrugs of γ‐Alkyl‐Modified Nucleoside Triphosphates: Improved Inhibition of HIV Reverse Transcriptase” (Angewandte Chemie (International Ed. in English), 2020).

Biological target: T1, human DNA polymerase γ (Homo sapiens, UniProt P54098)
T1 construct: purchased Roboklon
T1 sequence (P54098 1-1239): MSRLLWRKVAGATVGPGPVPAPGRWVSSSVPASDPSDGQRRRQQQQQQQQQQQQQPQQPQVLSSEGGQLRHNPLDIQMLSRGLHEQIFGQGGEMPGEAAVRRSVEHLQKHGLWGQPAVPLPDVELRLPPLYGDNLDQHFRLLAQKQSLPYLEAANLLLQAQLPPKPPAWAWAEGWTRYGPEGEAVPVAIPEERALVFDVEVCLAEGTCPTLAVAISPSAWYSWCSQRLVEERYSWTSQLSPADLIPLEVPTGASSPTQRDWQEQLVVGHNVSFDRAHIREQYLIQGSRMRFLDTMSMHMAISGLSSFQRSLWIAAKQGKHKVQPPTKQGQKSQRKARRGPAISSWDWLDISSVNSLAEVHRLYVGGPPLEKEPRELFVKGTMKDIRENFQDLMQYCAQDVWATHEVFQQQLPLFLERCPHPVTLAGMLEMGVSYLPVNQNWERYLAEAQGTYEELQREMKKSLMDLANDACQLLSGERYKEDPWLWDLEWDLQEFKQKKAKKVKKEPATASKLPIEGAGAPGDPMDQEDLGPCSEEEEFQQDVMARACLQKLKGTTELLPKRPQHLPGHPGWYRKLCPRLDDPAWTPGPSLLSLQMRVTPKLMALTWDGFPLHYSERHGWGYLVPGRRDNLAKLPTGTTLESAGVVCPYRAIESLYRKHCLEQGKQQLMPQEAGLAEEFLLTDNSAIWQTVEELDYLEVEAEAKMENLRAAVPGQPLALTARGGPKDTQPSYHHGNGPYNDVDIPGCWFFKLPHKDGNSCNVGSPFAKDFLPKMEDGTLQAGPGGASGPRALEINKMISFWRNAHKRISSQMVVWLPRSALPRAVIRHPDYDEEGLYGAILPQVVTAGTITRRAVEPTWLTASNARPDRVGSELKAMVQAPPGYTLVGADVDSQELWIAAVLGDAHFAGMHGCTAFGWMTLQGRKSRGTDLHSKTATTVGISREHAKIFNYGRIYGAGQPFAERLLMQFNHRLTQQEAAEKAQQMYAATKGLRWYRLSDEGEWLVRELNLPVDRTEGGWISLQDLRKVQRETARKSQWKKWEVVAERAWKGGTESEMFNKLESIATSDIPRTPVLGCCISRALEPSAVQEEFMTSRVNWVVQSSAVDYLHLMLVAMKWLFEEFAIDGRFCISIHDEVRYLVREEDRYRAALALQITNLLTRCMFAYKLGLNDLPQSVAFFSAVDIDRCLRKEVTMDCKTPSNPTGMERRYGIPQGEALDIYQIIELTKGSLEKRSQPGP
Assay: Primer extension assay with human DNA polymerase γ
Assay type: biochemical
Conditions: dNTPs 250 μM, Pol γ 4 U
Protocol: Two different set‐ups have been used. First, a mixture of dATP, dCTP, dGTP, and γ‐alkyl‐TTP (N*) or ‐d4TTP (T*) was used as a mixture. The results obtained from these experiments were compared to those in which just γ‐alkyl‐TTP (N) or d4TTP (T) was used. In each experiment a primer extension without added polymerase (negative control, ‐ lane) and an experiment in which all four canonical NTPs were added (positive control, +lane) were used as controls.
Anti-HIV activity assay: Inhibition of HIV-1(IIIB)- and HIV-2(ROD)-induced cytopathicity in wild-type CEM/0 and thymidine kinase-deficient CEM/TK- cell cultures was measured in microtiter 96-well plates containing ~3·105 CEM cells/mL infected with 100 CCID50 of HIV per milliliter and containing appropriate dilutions of the test compounds. After 4−5 days of incubation at 37 °C in a CO2-controlled humidified atmosphere, CEM giant (syncytium) cell formation was examined microscopically. The EC50 (50% effective concentration) was defined as the compound concentration required to inhibit HIV-induced giant cell formation by 50%. […]
2) For HIV- RT assay: The final assay solution (10 µL) consists of 50 mM Tris-HCl (pH 8.6 at 22 °C), 10 mM MgCl2, 40mM KCl, dNTPs 66 µM, HIV RT 6 U, Hybrid 0.32 µM in a reaction volume of 10 µL, incubated 37 °C for 15 min, 80 °C for 3 min; 50 mA, 45w for 4 h. […] The result was visualized by fluorescence imaging. […]

Compound: Cc1cn(C2C=CC(COP(=O)(O)OP(=O)(O)OP(=O)(O)O)O2)c(=O)[nH]c1=O (stereo not shown) [2 t, d4TTP, reference compound]
- primer extension by DNA polymerase γ (substrate properties): not substrates
